Source: ChEMBL document CHEMBL3826874, “Exploring new scaffolds for angiotensin II receptor antagonism” (Bioorg Med Chem, 2016)

Key:
[1] = target: T1, Type-1 angiotensin II receptor (Homo sapiens) (UniProt P30556); assay: (§1) Displacement of [125I-Sar1-Ile8]Ang2 from human AT1 receptor expressed in HEK293 cell membrane incubated for 1 hr by gamma counting method; assay type: cell membranes
T1 sequence (whole entry): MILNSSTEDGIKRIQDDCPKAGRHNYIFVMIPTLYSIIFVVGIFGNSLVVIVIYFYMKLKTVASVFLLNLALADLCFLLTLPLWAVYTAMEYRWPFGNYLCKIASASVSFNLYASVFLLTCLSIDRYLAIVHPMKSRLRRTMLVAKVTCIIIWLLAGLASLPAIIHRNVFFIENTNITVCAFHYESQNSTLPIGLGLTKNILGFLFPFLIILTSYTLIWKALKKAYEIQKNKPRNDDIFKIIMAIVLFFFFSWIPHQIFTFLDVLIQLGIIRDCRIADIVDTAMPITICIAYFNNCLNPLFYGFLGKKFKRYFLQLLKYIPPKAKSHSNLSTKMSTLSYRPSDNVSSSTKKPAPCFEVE

[2] = target: T2, Type-1 angiotensin II receptor (Homo sapiens, UniProt P30556); assay: as §1; assay type: cell membranes
T2 sequence (P30556 whole entry): T1 sequence (whole entry)

Row | inhibition [1] | IC50 ([2]; read-out: IC50) [nM] | IC50 ([2]; read-out: pIC50 (converted)) [nM] | SMILES
1 | Dose-dependent effect | 199 |  | CN(Cc1cn(-c2ccccc2)nc1-c1ccc(Cl)cc1)C(=O)CCC(=O)O
2 | Dose-dependent effect |  | 2570 | CN(Cc1cn(-c2ccccc2)nc1-c1ccc(F)cc1)C(=O)CCC(=O)O
3 | Dose-dependent effect |  | 2190 | Cc1ccc(C)c(NC(=O)CN(C)C(=O)c2ccc(S(=O)(=O)N3CCCCCC3)cc2)c1
4 | Dose-dependent effect |  | 2090 | Cc1ccc(CN(c2ccc(C(=O)NCc3ccccn3)cc2)S(C)(=O)=O)cc1
